Like-named read-outs stand apart in the source and are kept apart here.
B1: HPr^9–30 F22A peptide (peptide)
peptide: Ac-GWAEGLHARPASIAVRAATATG-NH2
notes: HPr of Streptomyces coelicolor, residues 9-30, with F22A; source: synthetic peptide, bought: NZYTech (purity >95%)

Key:
Rsd^ec [1] = molecular target: T1, Rsd^ec (Escherichia coli, UniProt P0AFX4); assay: Isothermal titration calorimetry (ITC), peptide/Rsd^ec binding; conditions: for ΔH, Rsd^ec: 50 mM Tris pH 7.0
T1 construct: His-tag; made in house; host or cells: E. coli C41
Protocol: (§1) The experimental set-up and data processing of ITC experiments has been described previously. Rsd^ec or EIN^sc (at 10–20 µM) were injected into the cell, and the peptides in the syringe (100–200 µM) in 50 mM of Tris buffer, pH 7.0. The temperature for all the experiments was 25 °C. Typically, each calorimetric titration consisted of performing 19 injections with 2 μL volume, with a time spacing of 150 s, while stirring at 750 rpm in an Auto-iTC200 high-sensitivity microcalorimeter (MicroCal, Malvern-Panalytical, Malvern, UK). The results were analysed by applying a model that considered a single binding site (assuming a 1:1 stoichiometry) for the peptide/EIN^sc or peptide/Rsd^ec interaction using a nonlinear least-squares regression analysis in Origin 7.0 (OriginLab, Northampton, MA, USA) with user-defined fitting routines.

EIN^sc = EIN^sc (Streptomyces coelicolor, UniProt Q9KZP1); assay: biochemical; assay type: binding
Protocol: (§2) Spectra were collected at 25 °C on a Cary spectrofluorometer (Agilent, Madrid, Spain), with a Peltier temperature controller. The samples were prepared the day before and left overnight at 5 °C. Before measurements, the samples were incubated for 1 h at 25 °C. A quartz cell with a 1 cm path length (Hellma, Kruibeke, Belgium) was used. In all the experiments, the slit widths were equal to 5 nm for both the excitation and emission lights. Protein samples were excited at either 280 or 295 nm. The experiments were performed between 300 and 400 nm. The signal was acquired for 1 s, and the increment of wavelength was set to 1 nm. Appropriate blank corrections were made in all spectra. For the binding experiments, 3 µM of either protein (Rsd^ec or EIN^sc) and 15 µM of the corresponding peptide were mixed. The experiments in aqueous solution were acquired in Tris buffer (50 mM, pH 7.0).
(§3) For the titration between either of the two proteins (Rsd^ec or EIN^sc) and the corresponding peptide, increasing amounts of the latter, in a concentration range of 0 to 30 µM, were added to a solution with a fixed concentration of each protein (3 µM). The experimental set-up was identical to that described above, including preparation of the samples the day before and their storage overnight at 5 °C. Before measurements, the samples were incubated for 1 h at 25 °C. The fluorescence of a blank solution containing only the corresponding peptide was subtracted for each data point. […] The Kd was determined by following the fluorescence at selected wavelengths and fitting experimental data to Equation (1). […] At all used concentrations, the fluorescence was corrected by the inner-filter effects.

[2] = system: Staphylococcus aureus CECT59; assay type: cell-based; conditions: S. aureus CECT59, two-fold broth microdilution (CLSI), MH broth, 24 h, 37 °C; triplicate (sd = 0); highest concentration tested 400 µM
Protocol: The CECT59 strain of the Gram-positive bacteria Staphylococcus aureus from the Spanish Type Culture Collection (Colección Española de Cultivos Tipo, CECT, Universitat de Valencia, Spain) was used for determining its sensitivity to the HPr peptides studied in this work. The MIC for each peptide was determined by the two-fold broth microdilution method according to the Clinical and Laboratory Standards Institute (CLSI) guidelines, with some modifications as previously described. For this testing procedure, a bacteria colony previously grown in MH agar plates was isolated and incubated in MH broth at 37 °C overnight to prepare the bacteria inoculum to be used in each assay. Then, the bacteria suspensions were adjusted to a 100× dilution of an 0.5 McFarland turbidity standard in MH broth and incubated with different concentrations of each peptide in round-bottom 96-well polystyrene plates (Deltalab S.L., Rubí, Spain) (50 μL/well) for 24 h at 37 °C. The peptide concentrations employed comprised two-fold dilutions starting at either 120, 160, or 400 µM, depending on the experiment. […] All assays were performed in triplicate.

[3] = TFE titration followed by far-UV CD (disordered-helical two-state equilibrium); assay type: physicochemical; conditions: for [TFE]1/2 / m: TFE titration by far-UV CD, 20 µM peptide, two-state fit, fitting errors; for percentage of helical population (in parentheses): from ∆G^water assuming a two-state conformational equilibrium; for ∆G^water: product of m- and [TFE]1/2 values, error propagation
Protocol: For experiments in the presence of TFE, the same set of experimental parameters was used. Cosolvent concentrations were indicated in percentage of volume (%). […] The peptide concentration for these experiments was 20 µM.

[4] = Translational diffusion NMR (DOSY); assay type: physicochemical; conditions: for D (translational diffusion coefficient): DOSY, 10 °C, 100% D2O, 70-120 µM peptide, fitting errors, repeated twice; for Rh (in parentheses, from DOSY): from comparison with the Rh of dioxane (2.12 Å)
Protocol: (b) Translational diffusion NMR (DOSY): Peptide concentrations were the same as those used in the 1D-^1H-NMR spectra. Translational self-diffusion measurements were performed with the pulsed-gradient spin-echo sequence in the presence of 100% D2O. The following relationship existed between the translational self-diffusion coefficient, D, and the delays used during experiment acquisition:(2) I/I0=−exp(DγH2δ^2G^2(Δ−δ/3−τ/2)) where I is the peak intensity of a particular resonance (or a group of them) at any gradient strength; I0 is the maximum peak intensity of the same resonance(s) at the smallest gradient strength (that is, at 2% of the total power of the gradient coil); D is the translational self-diffusion constant (in cm^2 s^−1); δ is the duration (in s) of the gradient; G is the gradient strength (in T cm^−1); ∆ is the time (in s) between the gradients; γH is the gyromagnetic constant of the proton (in rad s^−1 T^−1); and τ is the recovery delay between the bipolar gradients (100 µs in our experiments). The gradient strength (G) was varied in 16 lineal steps, between 2 and 95% of the total power of the gradient coil of the probe. The gradient strength was calibrated by using the value of D for the residual proton water line in a sample containing 100% D2O placed in a 5 mm tube [42]. Data were plotted as I/I0 versus G^2, and the exponential factor of the curve was:(3) DγH2δ^2(Δ−δ/3−τ/2) from which D can be obtained. The duration of the gradient (δ) was 2.25 ms, and the time between the two gradients (∆) was set to 200 ms. The signal from the methyl groups between 1.1 and 0.70 ppm were used for integration of the intensity. A final concentration of 1% of dioxane was added to each peptide; the hydrodynamic radius, Rh, of each peptide was obtained for comparison by assuming that the Rh of dioxane was 2.12 Å [42]. The DOSY experiment was repeated twice with fresh samples for each peptide.

[5] = Far-UV CD, helicity from molar ellipticity at 222 nm; assay type: physicochemical; conditions: 5 °C; for [Θ]^222 (value in parentheses): 50 mM Tris pH 7.0; for Helicity (%): 50 mM Tris pH 7.0, from [Θ]^222 assuming −39,500 deg cm^2 dmol^−1 for a fully formed α-helix
Protocol: Spectra were collected on a Jasco J810 spectropolarimeter (Jasco, Tokyo, Japan) interfaced with a Peltier unit. Far-UV measurements were performed with samples placed in quartz cells with a 0.1 cm path length (Hellma, Kruibeke, Belgium), with a response time of 2 s, a band width of 1 nm, and a scan velocity of 50 nm/min. For all peptides, a wide range of concentrations (10–50 µM) was used to determine whether either the shape or the intensity of the spectra was concentration-dependent. None of those features changed in the concentration range explored. The experiments in aqueous solution were acquired at 5 °C in Tris buffer (50 mM, pH 7.0). Raw ellipticity was converted to molar ellipticity, [Θ], from which the fraction of helical populations was determined as previously described. For the experiments in the presence of each protein (repeated three times), the same concentration used in the fluorescence experiments was used, and the experimental set-up was the same as described above for the isolated peptides.

Rsd^ec [6] = molecular target: T1, Rsd^ec; assay: Fluorescence titration, peptide/Rsd^ec binding
Protocol: as §2, §3

[7] = molecular target: EIN^sc (N-terminal domain of EI^sc) (Streptomyces coelicolor, UniProt Q9KZP1); assay: biochemical; assay type: binding
Protocol: as §1

Rsd (Escherichia coli) = Rsd (Escherichia coli) (UniProt C5A0T6); assay: ITC; conditions: cited from earlier work
[8] = molecular target: EI (Streptomyces coelicolor) (UniProt Q9KZP1); assay: ITC; conditions: cited from earlier work
[9] = molecular target: EI EIN (Streptomyces coelicolor) (UniProt Q9KZP1); assay: ITC; conditions: cited from earlier work
[10] = molecular target: T2, Regulator of sigma D from Escherichia coli (Rsd^ec) (E. coli, UniProt P0AFX4 1-158); assay: other fluorescence titration; peptide 0–30 µM added to 3 µM Rsd^ec or EIN^sc; 50 mM Tris, pH 7.0, 25 °C; samples left overnight at 5 °C; blank of peptide subtracted; conditions: both partners purified
T2 construct: Rsd (regulator of sigma D), anti-sigma factor of sigma 70, E. coli; 158-residue-long protein; called 'intact Rsd' in the abstract and 'wild-type Rsd vector' in the methods; Vector was a gift from Ann Hochschild; source: E. coli C41, purified as described [24,50]
T2 sequence (looked up): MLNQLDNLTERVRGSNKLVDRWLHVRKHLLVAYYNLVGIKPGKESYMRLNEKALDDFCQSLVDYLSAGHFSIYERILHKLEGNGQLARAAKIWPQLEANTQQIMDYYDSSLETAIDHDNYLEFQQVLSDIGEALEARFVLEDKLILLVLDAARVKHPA

[11] = molecular target: T2, Regulator of sigma D from Escherichia …; assay: ITC; Rsd^ec or EIN^sc (10–20 µM) in the cell, peptide (100–200 µM) in the syringe; 50 mM Tris, pH 7.0, 25 °C; single binding-site model, 1:1 stoichiometry assumed; conditions: both partners purified

EIN^sc, sequence (Q9KZP1 1-230): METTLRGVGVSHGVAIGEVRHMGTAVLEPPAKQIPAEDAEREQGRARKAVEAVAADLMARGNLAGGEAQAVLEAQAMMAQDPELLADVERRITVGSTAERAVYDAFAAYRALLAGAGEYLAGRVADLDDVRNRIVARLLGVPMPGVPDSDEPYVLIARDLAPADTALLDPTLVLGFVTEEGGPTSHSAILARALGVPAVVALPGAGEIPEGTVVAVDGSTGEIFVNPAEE
EIN^sc (N-terminal domain of EI^sc), sequence (Q9KZP1 1-230): as above
EI EIN (Streptomyces coelicolor), sequence (Q9KZP1 1-250): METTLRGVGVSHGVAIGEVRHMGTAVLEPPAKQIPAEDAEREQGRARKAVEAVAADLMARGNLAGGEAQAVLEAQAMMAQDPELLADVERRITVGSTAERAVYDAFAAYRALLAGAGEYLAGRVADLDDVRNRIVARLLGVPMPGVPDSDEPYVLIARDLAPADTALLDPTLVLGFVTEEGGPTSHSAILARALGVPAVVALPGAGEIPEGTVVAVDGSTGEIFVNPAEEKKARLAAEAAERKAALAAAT
EI (Streptomyces coelicolor), sequence (Q9KZP1 whole entry): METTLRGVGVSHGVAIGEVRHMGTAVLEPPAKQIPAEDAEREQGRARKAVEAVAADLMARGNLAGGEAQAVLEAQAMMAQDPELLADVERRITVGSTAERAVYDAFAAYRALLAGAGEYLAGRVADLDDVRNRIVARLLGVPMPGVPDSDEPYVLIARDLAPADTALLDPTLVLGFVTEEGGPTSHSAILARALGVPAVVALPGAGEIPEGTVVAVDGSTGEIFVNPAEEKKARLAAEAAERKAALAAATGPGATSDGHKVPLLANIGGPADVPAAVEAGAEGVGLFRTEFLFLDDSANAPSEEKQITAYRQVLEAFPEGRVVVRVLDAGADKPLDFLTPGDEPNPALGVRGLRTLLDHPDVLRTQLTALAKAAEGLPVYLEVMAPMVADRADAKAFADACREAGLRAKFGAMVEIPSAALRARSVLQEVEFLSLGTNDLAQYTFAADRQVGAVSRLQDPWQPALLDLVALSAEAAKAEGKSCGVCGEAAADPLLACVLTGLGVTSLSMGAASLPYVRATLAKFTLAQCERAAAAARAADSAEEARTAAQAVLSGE

Molecule	ΔH, Rsd^ec (Rsd^ec [1]; ITC, 25 °C) [kcal/mol]	MIC [2] [µM]	[TFE]1/2 [3]	m [3]	percentage of helical population (in parentheses) [3] [%]	∆G^water [3] [kcal/mol]	D (translational diffusion coefficient) [4] [cm^2 s^−1 × 10^6]	Rh (in parentheses, from DOSY) [4] [Å]	[Θ]^222 (value in parentheses) [5] [deg cm^2 dmol^−1]	Helicity (%) [5] [%]	Kd (Rsd (Escherichia coli)) [µM]	also measured
Ac-GWAEGLHARAASAAARAATATG-NH2 [P18A/I21A/F22A/V23A]	4.3 ± 0.5	> 400	21 ± 1 % (v/v)	157 ± 26 cal/mol (% (v/v))	0.24	3.3 ± 0.6	1.7 ± 0.1	12 ± 2	−7305.73	18.4		Kd (Rsd^ec [1]; ITC, 25 °C, 50 mM Tris pH 7.0, single binding-site model, read-out: Kd, Rsd^ec (ITC)): 5 ± 0.7 µM; Kd (EIN^sc; fluorescence titration, 3 µM protein, 0-30 µM peptide, 25 °C, 50 mM Tris pH 7.0, uncertainties are fitting errors, repeated three times, read-out: Kd, EIN^sc (fluorescence titration, value in parentheses)): 11 µM; Kd (Rsd^ec [6]; fluorescence titration, 3 µM protein, 0-30 µM peptide, 25 °C, 50 mM Tris pH 7.0, uncertainties are fitting errors, repeated three times, read-out: Kd, Rsd^ec (fluorescence titration, value in parentheses) (converted)): 10 µM
Ac-GWAEGLHARPASAFVRAATATG-NH2 [Peptide I21A]	1.0 ± 0.4	> 400	23.8 ± 0.4 % (v/v)	197 ± 20 cal/mol (% (v/v))	0.02	4.7 ± 0.5	1.9 ± 0.1	11 ± 1	−681.95	1.7		Kd (Rsd^ec [1]): 2.6 ± 0.4 µM; Kd (Rsd^ec [6]): 8 µM
Ac-GWAEGLHARPASIFARAATATG-NH2 [Peptide V23A]	-0.8 ± 0.5	> 400	22.7 ± 0.3 % (v/v)	217 ± 23 cal/mol (% (v/v))	0.01	4.9 ± 0.5	2.0 ± 0.1	11 ± 1	−988.51	2.5		Kd (EIN^sc): 9 µM; Kd [7]: 9.1 ± 0.9 µM; ΔH, EIN^sc ([7]; ITC, 25 °C, 50 mM Tris pH 7.0): -6.6 ± 0.5 kcal/mol
HPr 9-30 (from UniProt O50515)											2.5	Kd [8]: 230 µM
HPr (from UniProt O50515)											2	Kd [9]: 12 µM
B1												Kd [10]: 11 µM; Kd [11]: 5.9 ± 0.7 µM; dH [11]: 1.1 ± 0.5 kcal/mol
